Laboratory results from patent US10287276B2, “Heteroaryl-1,2,4-triazole and heteroaryl-tetrazole compounds for controlling ectoparasites” (Elanco Tiergesundheit AG, priority 2016, dated 2019).

Legend:
[1] = tested on: Rhipicephalus sanguineus (Dog Tick); assay: Activity in vitro against Rhipicephalus sanguineus (dog tick), Assay A, contact test; conditions: Rhipicephalus sanguineus, 168 h, at 100 ppm, adult ticks, 28° C. and 80% relative humidity for 7 days, read-out: efficacy (EC80)
[2] = tested on: Ctenocephalides Felis (Cat Flea); assay: Activity in vitro against Ctenocephalides felis (cat flea), Assay A; conditions: Ctenocephalides felis; at 100 ppm; adult fleas fed on treated blood for 24 h; dead fleas counted; read-out: efficacy (EC80)
Experimental: Activity In Vitro Against Ctenocephalides Felis (Cat Flea)—Assay A
A mixed adult population of fleas is placed in a suitably formatted 96-well plate allowing fleas to access and feed on treated blood via an artificial feeding system. Fleas are fed on treated blood for 24 h, after which the compound effect is recorded. Insecticidal activity is determined on the basis of the number of dead fleas recovered from the feeding system.

[3] = tested on: Rhipicephalus sanguineus Nymphs; assay: Activity in vivo against Rhipicephalus sanguineus nymphs on Mongolian gerbils; conditions: topical, 0 h, pour on application day 0, tick number reduction vs placebo, Abbott's formula, read-out: efficacy (EC90)
Experimental: On day 0, gerbils are treated with the test compound at a given dose by pour on application. On day +1 (+2), the animals are infested with nymphs of R. sanguineus. Ticks are left on the animals until full repletion. Seven days after infestation nymphs dropped off fully engorged are collected and counted. They are kept until molting to also evaluate growth regulating activity of the test compound. Efficacy in killing (and growth regulating) is expressed as a tick number (and molted tick number) reduction in comparison with a placebo treated group, using the Abbott's formula:
n=number of live ticks. T=treated group. Co=control/placebo group.

[4] = tested on: Engorged Female Rhipicephalus microplus (Cattle Tick); assay: Activity in vitro against engorged female Rhipicephalus microplus (cattle tick), contact test; conditions: 672 h, organophosphorous-resistant Ultimo strain, evaluation 28 days later on mortality, oviposition and hatched larvae, read-out: efficacy (EC80)
Summary of the method: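 Contact test: wells pre-coated with compound serial dilutions, 10 engorged females of organophosphate-resistant Ultimo strain per well, triplicates. Incubated 28 °C, 80% RH; mortality, oviposition and larval hatch assessed after 28 days.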

[5] = tested on: Lucilla Cuprina (Australian sheep blowfly); assay: Activity in vitro against Lucilla cuprina (Australian sheep blowfly), Assay A; conditions: Lucilia cuprina, 96 h; at 32 ppm; eggs on agar-based medium, 4 days at 28° C. and 60% relative humidity; read-out: efficacy (EC80)
Lice (Polyplax serrata) = assay: Activity in vivo against lice (Polyplax serrata) in mice (topical); conditions: pour-on application, live lice on day +4 and +14, Henderson & Tilton formula, read-out: efficacy (EC90)
Summary of the method: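 Naturally infested mice get formulated compound once by pour-on on day 0. Live lice are counted under a binocular on days +4 and +14. Efficacy is calculated by Henderson & Tilton from pre- vs post-treatment counts on the same mouse, corrected against placebo (empty formulation) mice.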

Compound | pest or weed control at 100 ppm [1] [%] | pest or weed control at 100 ppm [2] [%] | inhibition in vivo at 32 mg/kg [3] [%] | pest or weed control at 200 ppm [4] [%] | pest or weed control at 32 ppm [5] [%] | inhibition in vivo at 32 mg/kg (Lice (Polyplax serrata)) [%]
CC(c1ncnn1-c1ccccn1)N(CC1CC1)C(=O)c1cc(Cl)cc(OC(F)(F)F)c1 (stereo not drawn) [Example 10, 3-Chloro-N-(cyclopropylmethyl)-N-[1-[2-(2-pyridyl)-1,2,4-triazol-3-yl]ethyl]-5-(trifluoromethoxy)benzamide] | > 80 | > 80 | > 90 | > 80 | > 80 | > 90
CC(c1ncnn1-c1ncccn1)N(CC1CC1)C(=O)c1cc(Cl)cc(C(F)(F)F)c1 (stereo not drawn) [Example 40, 3-Chloro-N-(cyclopropylmethyl)-N-[1-(2-pyrimidin-2-yl-1,2,4-triazol-3-yl)ethyl]-5-(trifluoromethyl)benzamide] | > 80 | > 80 | > 90 | > 80 | > 80 | > 90
CC(c1ncnn1-c1ncccn1)N(CCC(F)(F)F)C(=O)c1cc(C(F)(F)F)cc(C(F)(F)F)c1 (stereo not drawn) [Example 20, N-[1-(2-Pyrimidin-2-yl-1,2,4-triazol-3-yl)ethyl]-3,5-bis(trifluoromethyl)-N-(3,3,3-trifluoropropyl)benzamide] | > 80 | > 80 | > 90 | > 80 | > 80 | > 90
CC(c1ncnn1-c1ncccn1)N(CC1CC1)C(=O)c1cc(C(F)(F)F)cc(C(F)(F)F)c1 (stereo not drawn) [Example 48, N-(Cyclopropylmethyl)-N-[1-(2-pyrimidin-2-yl-1,2,4-triazol-3-yl)ethyl]-3,5-bis(trifluoromethyl)benzamide] | > 80 | > 80 | > 90 | > 80 | > 80 | > 90
CC(c1ncnn1-c1ncccn1)N(CCF)C(=O)c1cc(C(F)(F)F)cc(C(F)(F)F)c1 (stereo not drawn) [Example 19, N-(2-Fluoroethyl)-N-[1-(2-pyrimidin-2-yl-1,2,4-triazol-3-yl]ethyl]-3,5-bis(trifluoromethyl)benzamide] | > 80 | > 80 | > 90 | > 80 | > 80 | > 90
CC(c1ncnn1-c1ccccn1)N(CC1CC1)C(=O)c1cc(C(F)(F)F)cc(C(F)(F)F)c1 (stereo not drawn) [Example 1, N-(Cyclopropylmethyl)-N-[1-[2-(2-pyridyl)-1,24-triazol-3-yl]ethyl]-3,5-bis(trifluoromethyl)benzamide] | > 80 | > 80 | > 90 | > 80 | > 80 | > 90
